Measurements from patent publication US20240425484A1, “INHIBITORS OF TYK2” (Atomwise Inc., priority 2023, published 2024).

The compounds below were run against T1, TYK2-JH2 (Homo sapiens, UniProt P29597) (assay: TYK2-JH2 HTRF binding assay (ligand efficiency)). Conditions: calculated (Equation 1) from IC50 of the TYK-JH2 binding assay.
T1 construct: TYK JH2 enzyme mix (ChemPartner: CP20210818A-BV); purchased ChemPartner CP20210818A-BV
Protocol: The following example describes the TYK2-JH2 HTRF binding assay used to determine the ligand efficiency of the TYK2 inhibitors.
To calculate ligand efficiency, Equation 1 is applied: […]
in which IC50 comes from the binding assay used to determine compound potency.
TYK JH2 enzyme mix (ChemPartner: CP20210818A-BV), tracer (ChemPartner: CP-0029472-051) and mAb Anti-6HIS Tb cryptate Gold (Cisbio: Cat No. 61HI2TLA) mix were prepared in assay buffer (10 mM MgCl2, 20 mM HEPES pH 7.5, 0.01% Triton X-100, 1 mM DTT). Compounds diluted in DMSO (Final Concentrations 0.1 to 0.000005 [μM]) and enzyme mix (0.5 nM Final Concentration) were added to 384 well plates, briefly centrifuged and incubated at room temperature for 10 minutes. After incubation, tracer mix (Tracer-35 nM final concentration); (MAb Anti-6HIS Tb cryptate Gold-0.5X final)) was added, briefly centrifuged then incubate at room temperature 60 minutes. After incubation, plates were read by Envision TR-FRET (Ex340/Em495/520) protocol (PerkinElmer-Envision 2104 multilabel plate reader).

T1 sequence (P29597 589-875 limits assumed): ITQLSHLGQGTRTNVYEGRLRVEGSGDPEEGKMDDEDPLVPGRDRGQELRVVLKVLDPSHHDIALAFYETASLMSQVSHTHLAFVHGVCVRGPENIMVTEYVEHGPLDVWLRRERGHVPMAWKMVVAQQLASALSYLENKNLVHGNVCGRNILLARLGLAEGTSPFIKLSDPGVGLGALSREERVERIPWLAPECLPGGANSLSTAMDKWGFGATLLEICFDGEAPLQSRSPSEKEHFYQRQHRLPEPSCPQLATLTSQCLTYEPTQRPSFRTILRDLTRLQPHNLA

Compound	Ligand Efficiency
CS(=O)(=O)c1ccccc1Nc1cc(Nc2ccc(NC3COC3)cn2)ncn1 [Compound 80, N^4-(2-(methylsulfonyl)phenyl)-N^6-(5-(oxetan-3-ylamino)pyridin-2-yl)pyrimidine-4,6-diamine]	† (†: <0.37)
Cc1nccc(Nc2cc(Nc3ccccc3C(N)=O)ncn2)n1 [Compound 48, 2-((6-((2-methylpyrimidin-4-yl)amino)pyrimidin-4-yl)amino)benzamide]	††† (†††: >0.39)
Cc1cccc(Nc2cc(Nc3cccnc3C(N)=O)ncn2)n1 [Compound 50, 3-((6-((6-methylpyridin-2-yl)amino)pyrimidin-4-yl)amino) picolinamide]	††† (†††: >0.39)
Cn1ccc(Nc2cc(Nc3ccccc3S(C)(=O)=O)ncn2)n1 [Compound 66, N^4-(1-methyl-1H-pyrazol-3-yl)-N^6-(2-(methylsulfonyl)phenyl)pyrimidine-4,6-diamine]	††† (†††: >0.39)
CC(c1ccc(Nc2cc(Nc3ncccc3S(C)(=O)=O)ncn2)nc1)N1CCCC1 (stereo in doubt) [Compound 15, (R)—N^4-(3-(methylsulfonyl)pyridin-2-yl)-N^6-(5-(1-(pyrrolidin-1-yl)ethyl)pyridin-2-yl)pyrimidine-4,6-diamine]	††† (†††: >0.39)
CC1(Nc2ccc(Nc3cc(Nc4ncccc4S(C)(=N)=O)ncn3)nc2)COC1 (stereo not drawn) [Compound 73, N^4-(5-((3-methyloxetan-3-yl)amino)pyridin-2-yl)-N^6-(3-(S-methylsulfonimidoyl)pyridin-2-yl)pyrimidine-4,6-diamine]	††† (†††: >0.39)
Cn1cc(-c2ccnc(Nc3cc(Nc4ccc(NC5(C)COC5)cn4)ncn3)c2S(C)(=O)=O)cn1 [Compound 72, N^4-(4-(1-methyl-1H-pyrazol-4-yl)-3-(methylsulfonyl)pyridin-2-yl)-N^6-(5-(3-methyloxetan-3-ylamino)pyridin-2-yl)pyrimidine-4,6-diamine]	† (†: <0.37)
Cc1cc(Nc2cc(Nc3ncccc3S(C)(=O)=O)ncn2)ncc1NC1(C)COC1 [Compound 23, N^4-(4-methyl-5-((3-methyloxetan-3-yl)amino)pyridin-2-yl)-N^6-(3-(methylsulfonyl)pyridin-2-yl)pyrimidine-4,6-diamine]	††† (†††: >0.39)
COc1ccnc(Nc2cc(Nc3ccc(C(C)N4CC5(COC5)C4)cn3)ncn2)c1S(C)(=O)=O (stereo not drawn) [Compound 76, N^4-(5-(1-(2-oxa-6-azaspiro[3.3]heptan-6-yl)ethyl)pyridin-2-yl)-N^6-(4-methoxy-3-(methylsulfonyl)pyridin-2-yl)pyrimidine-4,6-diamine]	† (†: <0.37)
Cc1cccc(Nc2cc(Nc3ccccc3C(N)=O)ncn2)n1 [Compound 46]	††† (†††: >0.39)
Cc1cccc(Nc2cc(Nc3ncccc3C(N)=O)ncn2)n1 [Compound 52, 2-((6-((6-methylpyridin-2-yl)amino)pyrimidin-4-yl)amino) nicotinamide]	††† (†††: >0.39)
Cc1cnnc(Nc2cc(Nc3ccccc3C(N)=O)ncn2)c1 [Compound 47, 2-((6-((5-methylpyridazin-3-yl)amino)pyrimidin-4-yl)amino)benzamide]	††† (†††: >0.39)
CC(NC1CC(F)(F)C1)c1ccc(Nc2cc(Nc3ncccc3S(C)(=O)=O)ncn2)nc1 (stereo not drawn) [Compound 35, N^4-(5-(1-(3,3-difluorocyclobutylamino)ethyl)pyridin-2-yl)-N^6-(3-(methylsulfonyl)pyridin-2-yl)pyrimidine-4,6-diamine]	††† (†††: >0.39)
C[C@H]1CN(C)CCN1c1ccc(Nc2cc(Nc3ncccc3S(C)(=O)=O)ncn2)nc1 [Compound 20, (S)—N^4-(5-(2,4-dimethylpiperazin-1-yl)pyridin-2-yl)-N^6-(3-(methylsulfonyl)pyridin-2-yl)pyrimidine-4,6-diamine]	††† (†††: >0.39)
CS(=O)(=O)c1cccnc1Nc1cc(Nc2ccc(N3CCN(C4CC4)CC3)cn2)ncn1 [Compound 7, N^4-(5-(4-cyclopropylpiperazin-1-yl)pyridin-2-yl)-N^6-(3-(methylsulfonyl)pyridin-2-yl)pyrimidine-4,6-diamine]	††† (†††: >0.39)
CC1(Nc2ccc(Nc3cc(Nc4ncccc4S(C)(=O)=O)ncn3)nc2)COC1 [Compound 21, N^4-(5-((3-methyloxetan-3-yl)amino)pyridin-2-yl)-N^6-(3-(methylsulfonyl)pyridin-2-yl)pyrimidine-4,6-diamine]	††† (†††: >0.39)
Cc1cccc(Nc2cc(Nc3ccccc3S(C)(=O)=O)nc(C)n2)n1 [Compound 56, 2-methyl-N^4-(6-methylpyridin-2-yl)-N^6-(2-(methylsulfonyl)phenyl)pyrimidine-4,6-diamine]	† (†: <0.37)

Compound	Ligand Efficiency
CS(=O)(=O)c1cccnc1Nc1cc(Nc2ccc(C(=O)NC3CC(F)(F)C3)cn2)ncn1 [Compound 38, N-(3,3-difluorocyclobutyl)-6-(6-(3-(methylsulfonyl)pyridine-2-ylamino)pyrimidin-4-ylamino) nicotinamide]	††† (†††: >0.39)
C[C@@H](c1ccc(Nc2cc(Nc3ncccc3S(C)(=O)=O)ncn2)nc1)N1CC2(CCOC2)C1 [Compound 32, (S)—N^4-(5-(1-(6-oxa-2-azaspiro[3.4]octan-2-yl)ethyl)pyridin-2-yl)-N^6-(3-(methylsulfonyl)pyridin-2-yl)pyrimidine-4,6-diamine]	††† (†††: >0.39)
C[C@H]1COCCN1c1ccc(Nc2cc(Nc3ccccc3S(C)(=O)=O)ncn2)nc1 [Compound 54, (S)—N^4-(5-(3-methylmorpholino)pyridin-2-yl)-N^6-(2-(methylsulfonyl)phenyl)pyrimidine-4,6-diamine]	† (†: <0.37)
Cc1cccc(Nc2cc(Nc3ccccc3S(C)(=O)=O)nc(N)n2)n1 [Compound 57, N^4-(6-methylpyridin-2-yl)-N^6-(2-(methylsulfonyl)phenyl)pyrimidine-2,4,6-triamine]	††† (†††: >0.39)
CS(=O)(=O)c1cccnc1Nc1cc(Nc2ncccc2F)ncn1 [Compound 64, N^4-(3-fluoropyridin-2-yl)-N^6-(3-(methylsulfonyl)pyridin-2-yl)pyrimidine-4,6-diamine]	††† (†††: >0.39)
CS(=O)(=O)c1cccnc1Nc1cc(Nc2ccc3c(n2)CC[C@@H]3N2CC3(COC3)C2)ncn1 [Compound 9, N^4-((5S)-5-(2-oxa-6-azaspiro[3.3]heptan-6-yl)-6,7-dihydro-5H-cyclopenta[b]pyridin-2-yl)-N^6-(3-(methylsulfonyl)pyridin-2-yl)pyrimidine-4,6-diamine]	††† (†††: >0.39)
CS(=O)(=O)c1cccnc1Nc1cc(Nc2ccc(NC3CC(F)(F)C3)cn2)ncn1 [Compound 37, N^4-(5-(3,3-difluorocyclobutylamino)pyridin-2-yl)-N^6-(3-(methylsulfonyl)pyridin-2-yl)pyrimidine-4,6-diamine]	††† (†††: >0.39)
Cc1cccc(Nc2cc(Nc3cnccc3C(N)=O)ncn2)n1 [Compound 61, 3-((6-((6-methylpyridin-2-yl)amino)pyrimidin-4-yl)amino) isonicotinamide]	††† (†††: >0.39)
Cc1cccnc1Nc1cc(Nc2ccccc2C(N)=O)ncn1 [Compound 68, 2-((6-((3-methylpyridin-2-yl)amino)pyrimidin-4-yl)amino)benzamide]	††† (†††: >0.39)
COc1ccc(Nc2cc(NC(=O)C3CC3)ncn2)c(C(N)=O)c1 [Compound 70, 2-((6-(cyclopropanecarboxamido)pyrimidin-4-yl)amino)-5-methoxy benzamide]	††† (†††: >0.39)
C[C@@H](c1ccc(Nc2cc(Nc3ncccc3S(C)(=O)=O)ncn2)nc1)N1C[C@H]2COC[C@H]2C1 [Compound 25, N^4-(3-(methylsulfonyl)pyridin-2-yl)-N^6-(5-(1-((3aR,6aS)-tetrahydro-1H-furo[3,4-c]pyrrol-5 (3H)-yl)ethyl)pyridin-2-yl)pyrimidine-4,6-diamine]	††† (†††: >0.39)
CC1(CNc2ccc(Nc3cc(Nc4ncccc4S(C)(=O)=O)ncn3)nc2)COC1 [Compound 36, N^4-(5-(((3-methyloxetan-3-yl)methyl)amino)pyridin-2-yl)-N^6-(3-(methylsulfonyl)pyridin-2-yl)pyrimidine-4,6-diamine]	††† (†††: >0.39)
CC(c1ccc(Nc2cc(Nc3ncccc3S(C)(=O)=O)ncn2)nc1)N1CC(F)C1 (stereo not drawn) [Compound 22, N^4-(5-(1-(3-fluoroazetidin-1-yl)ethyl)pyridin-2-yl)-N^6-(3-(methylsulfonyl)pyridin-2-yl)pyrimidine-4,6-diamine]	††† (†††: >0.39)
Cc1cccc(Nc2cc(Nc3ncccc3CS(C)(=O)=O)ncn2)n1 [Compound 71, N^4-(6-methylpyridin-2-yl)-N^6-(3-((methylsulfonyl)methyl)pyridin-2-yl)pyrimidine-4,6-diamine]	††† (†††: >0.39)
Cc1ccnc(Nc2cc(Nc3ccccc3P(C)(C)=O)ncn2)c1 [Compound 63, N^4-(2-(dimethylphosphoryl)phenyl)-N^6-(4-methylpyridin-2-yl)pyrimidine-4,6-diamine]	††† (†††: >0.39)
CS(=O)(=O)c1ccccc1Nc1cc(Nc2ccc(N3CCOCC3)cn2)ncn1 [Compound 42, N^4-(2-(methylsulfonyl)phenyl)-N^6-(5-morpholinopyridin-2-yl)pyrimidine-4,6-diamine]	††† (†††: >0.39)
